Measured values taken from patent publication US20230243002A1, “ASSAY OT DETECT VIRUS” (priority 2020, published 2023).

Columns and labels:
[1] = system: luminescence output of luciferase; assay: Compounds and reagents that inhibit or interfere with the ID-Oligo luminescence methods; type: biochemical
Excerpt: Various compounds and components may interfere with the methods described herein. […] Thus, in some embodiments, the sample is free of compounds and components that inhibit the luminescence output of luciferase. Accordingly, the sample may be free of sodium-azide, sodium-citrate, heparin, EDTA, EGTA, proteases, phosphates, 2,2′-azino-di-(3-ethylbenzothiazoline)-6-sulfonic acid (ABTS), and/or butylated hydroxytoluene (BHT). In various related aspects, the present application also relates to devices and kits for performing the methods described herein. Such kits contain monitors, reagents and procedures that can be utilized in a clinical or research setting or adapted for either the field laboratory or on-site use. In particular, kits comprising the disclosed reagents used in practicing the methods described herein include any of a number of means for detecting the captured target nucleic acid molecule and measuring the bioluminescent signal produced subsequent to target capture, along with appropriate instructions, are contemplated. Suitable kits comprise reagents sufficient for performing an assay, or one or more independent steps of an assay, to detect a target nucleic acid molecule, as described herein above.

luciferase = luciferase (Photinus pyralis, UniProt P08659); assay: Background LU of reaction with only luciferase and no viral RNA, dATP versus dATPαS; type: biochemical
[2] = system: SARS-CoV-2, USA-WA1/2020 RNA; assay: ID-Oligos assay signal output with dC/T/G only or supplemented with dATPαS; type: biochemical; settings: supplemented with 0.1 mM dATPαS versus only dT/G/C
[3] = system: coupled ATPS-luciferase reaction; settings: 0.04% Na-Azide, LU measured for 200 seconds

luciferase, sequence (P08659 whole entry): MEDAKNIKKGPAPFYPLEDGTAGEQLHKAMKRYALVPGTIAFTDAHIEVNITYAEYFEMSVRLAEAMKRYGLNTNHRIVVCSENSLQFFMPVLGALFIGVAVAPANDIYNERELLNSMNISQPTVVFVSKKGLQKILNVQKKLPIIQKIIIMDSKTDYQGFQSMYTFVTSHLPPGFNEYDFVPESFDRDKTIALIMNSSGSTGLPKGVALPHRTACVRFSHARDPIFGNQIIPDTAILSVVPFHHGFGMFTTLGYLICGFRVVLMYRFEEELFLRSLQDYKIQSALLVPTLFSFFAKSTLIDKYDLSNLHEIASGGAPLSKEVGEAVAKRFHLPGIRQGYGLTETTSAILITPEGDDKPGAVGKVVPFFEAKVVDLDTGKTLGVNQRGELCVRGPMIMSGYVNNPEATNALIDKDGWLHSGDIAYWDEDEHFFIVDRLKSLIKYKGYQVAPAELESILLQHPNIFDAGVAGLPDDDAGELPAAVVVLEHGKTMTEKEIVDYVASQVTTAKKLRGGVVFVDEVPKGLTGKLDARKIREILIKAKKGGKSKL

| Molecule | inhibit or interfere with the methods described herein [1] | further results |
| --- | --- | --- |
| O=C(O)CN(CCOCCOCCN(CC(=O)O)CC(=O)O)CC(=O)O [EGTA] | inhibit or interfere |  |
| CCn1c(=NN=c2sc3cc(S(=O)(=O)O)ccc3n2CC)sc2cc(S(=O)(=O)O)ccc21 [ABTS, 2,2′-azino-di-(3-ethylbenzothiazoline)-6-sulfonic acid] | inhibit or interfere |  |
| O=C(O)CN(CCN(CC(=O)O)CC(=O)O)CC(=O)O [EDTA] | inhibit or interfere |  |
| Cc1cc(C(C)(C)C)c(O)c(C(C)(C)C)c1 [BHT, butylated hydroxytoluene] | inhibit or interfere |  |
| heparin | inhibit or interfere |  |
| O=C([O-])CC(O)(CC(=O)[O-])C(=O)[O-].[Na+].[Na+].[Na+] [Na-citrate] | inhibit or interfere |  |
| Nc1ncnc2c1ncn2[C@H]1C[C@H](O)[C@@H](COP(O)(=S)OP(=O)(O)OP(=O)(O)O)O1 (some centres unmarked) [dATPαS] |  | improved signal-to-noise ratio (luciferase): ~2 orders of magnitude; LU background (luciferase; 0.1 mM/1 mM, luciferase only, no viral RNA): reduction; reaction slope [2]: Higher slope values |
| [N-]=[N+]=[N-].[Na+] [Na-azide] | inhibit or interfere | effect on the luminescence output of the coupled ATPS-luciferase reaction [3]: inhibitory effect |
